{"source": "patent US20250051243A1", "about": "“Nano Bio-Carrier with Plant Additives Combined with Chemical Fertilizers” (Sabic Agri-Nutrients Company, priority 2021, published 2025)", "system": "Maize", "experiment": "Maize trials: soil and foliar application of nano chitosan fertilizer product on maize crops (greenhouse pots)", "assay_type": "in vivo", "experimental": "Maize trials. Assays were also performed to evaluate soil and foliar application of nano chitosan fertilizer product on maize crops. These trials were also performed to investigate the effect of different concentrations of bulk and nano chitosan on the growth and productivity of maize. The maize trials included a further formulation for nano-chitosan urea, namely a urea-chitosan nanocomposite. The urea-chitosan nanocomposite was prepared by evaporating or freeze-drying the nano-chitosan fertilizer aqueous solution. The current urea-chitosan nanocomposite was prepared by evaporating an aqueous solution of nanochitosan urea at 50° C. for two days in an oven. Nanocomposite morphology of the urea-chitosan nanocomposite was confirmed based on SEM and compositional analysis shown in FIGS. 6A-6E and TEM shown in FIGS. 7A-7E. For SEM and compositional analysis on solid form, samples were studied in Zeiss EVO 15 after coating samples with gold to avoid charging. The powder was mounted on an aluminum stub. Based on the EDS analysis, it appeared that chitosan and urea was present in this powder. For the TEM analysis, a small amount of the sample was taken in a small vial, diluted with DM water and sonicated for 15 mins. One to two drops of this solution was taken on a formvar grid, the excess liquid was blotted on a filter paper, and TEM analysis was carried out Tecnai F20 at representative magnifications shown in FIGS. A thin grey film in the background with very small sized darker particles were apparent. An occasional larger sized film was also seen. Because urea dissolves in water, the morphology seen in the images of this sample was primarily urea-chitosan nanocomposite (nanoparticles). The process of drying in an oven over two days ensured steady removal of water without disturbing the nano-morphology of the urea-chitosan nanocomposite. Table 6 presents the trial details for the soil and foliar application of nano chitosan fertilizer product on maize crops. [table] Control samples were T1 (urea granules, at different time); T2 (urea and zinc, commercially available); and T13 (urea powder). As shown, Table 7A also presents the varying concentrations for the samples. […] Each rectangle represented a section or table in the greenhouse and the respective Trial sample(s) shown thereon. […] FIG. 13 is a graphical representation of the number of leaves apparent at 30 days after sowing (DAS) and at 60 DAS for samples T1 through T23. […] The amount of chlorophyll present in the leaf for samples T1 through T23 was measured using a soil plant analysis development (SPAD) chlorophyll meter and is shown in FIG. 14. […]", "data": [{"smiles": "NC(N)=O", "note": "[T13, urea]", "values": [{"measurement": "SPAD READING 30 DAS", "setting": "leaf chlorophyll, SPAD chlorophyll meter, 30 DAS", "result": 34.50}, {"measurement": "SPAD READING 60 DAS", "setting": "leaf chlorophyll, SPAD chlorophyll meter, 60 DAS", "result": 33.33}, {"measurement": "Cob Yield", "setting": "maize", "result": 7.33, "unit": "g"}, {"measurement": "Grain Yield", "setting": "maize", "result": 0.00, "unit": "g"}, {"measurement": "Plant Height 30 DAS", "setting": "maize, 30 DAS", "result": 124.33, "unit": "centimeters"}, {"measurement": "Plant height 60 DAS", "setting": "maize, 60 DAS", "result": 159.00, "unit": "centimeters"}, {"measurement": "No. of leaves 30 DAS", "setting": "maize, 30 days after sowing, soil or foliar application as per treatment", "result": 8.67}, {"measurement": "No. of leaves 60 DAS", "setting": "maize, 60 days after sowing, soil or foliar application as per treatment", "result": 12.67}, {"measurement": "corn cob development (grains within the cob)", "setting": "observation by greenhouse section A, B, C", "result": "failed to show grains"}]}]}
